# Values quoted from earlier work in patent publication US9125953B2, “Halogenated ether complex” (SAPIOTEC GMBH, priority 2010, dated 2015).
smiles,measurement,value
OC[C@H]1O[C@@H]2O[C@H]3[C@H](O)[C@@H](O)[C@@H](O[C@H]4[C@H](O)[C@@H](O)[C@@H](O[C@H]5[C@H](O)[C@@H](O)[C@@H](O[C@H]6[C@H](O)[C@@H](O)[C@@H](O[C@H]7[C@H](O)[C@@H](O)[C@@H](O[C@H]1[C@H](O)[C@H]2O)O[C@@H]7CO)O[C@@H]6CO)O[C@@H]5CO)O[C@@H]4CO)O[C@@H]3CO [α-cyclodextrin],solubility of unsubstituted α-cyclodextrin in water,14.5 % by weight
